In the NIST ThermoML archive (doi:10.1016/j.jct.2013.08.013):
Numbers after ± are expanded uncertainties.

Assay: xn = mol fraction of the nth substance listed
Conditions: 101 kPa, Liquid; for speed of sound: Frequency=2 MHz, Linear variable-path acoustic interferometer; for mass density: Vibrating tube method

Cc1ccccc1Cl [2-chlorotoluene] + CCCCCCO
Conditions	mass density, 298.15 K [kg/m3]	mass density, 303.15 K [kg/m3]	mass density, 308.15 K [kg/m3]	speed of sound, 298.15 K [m/s]	speed of sound, 303.15 K [m/s]	speed of sound, 308.15 K [m/s]
x1 = 0.0974	839.69 ± 0.37	835.89 ± 0.37	832.09 ± 0.37	1304.1 ± 2.3	1287 ± 2.3	1268.7 ± 2.3
x1 = 0.1968	864.67 ± 0.34	860.71 ± 0.34	856.77 ± 0.34	1302 ± 2.2	1284.3 ± 2.2	1266 ± 2.2
x1 = 0.3046	892 ± 0.31	887.87 ± 0.3	883.78 ± 0.3	1298.3 ± 2.2	1280.2 ± 2.2	1260.7 ± 2.2
x1 = 0.3967	915.57 ± 0.27	911.34 ± 0.27	907.1 ± 0.27	1294.3 ± 2.1	1275.7 ± 2.1	1255.7 ± 2.1
x1 = 0.489	939.38 ± 0.24	934.99 ± 0.24	930.68 ± 0.24	1290.1 ± 2.1	1271.1 ± 2.1	1250.9 ± 2.1
x1 = 0.5955	967.24 ± 0.21	962.7 ± 0.21	958.3 ± 0.21	1286.1 ± 2	1266.2 ± 2	1246.3 ± 2
x1 = 0.6902	992.34 ± 0.19	987.72 ± 0.19	983.26 ± 0.19	1283.6 ± 2	1264.1 ± 2	1244.4 ± 2
x1 = 0.8086	1024.27 ± 0.18	1019.61 ± 0.17	1015.04 ± 0.17	1284.7 ± 2	1265.4 ± 1.9	1246.2 ± 1.9
x1 = 0.8949	1047.98 ± 0.17	1043.25 ± 0.17	1038.71 ± 0.17	1289.1 ± 1.9	1270.5 ± 1.9	1250 ± 1.9
x1 = 1	1077.38 ± 0.15	1072.8 ± 0.15	1068.21 ± 0.15	1299.8 ± 1.9	1283.6 ± 1.9	1265.6 ± 1.9

CCCCCCCO [heptan-1-ol] + Cc1ccccc1Cl
x2 = 0
Conditions	mass density [kg/m3]	speed of sound [m/s]
298.15 K	818.79 ± 0.16	1326.5 ± 1.9
303.15 K	815.21 ± 0.16	1313.6 ± 1.9
308.15 K	811.62 ± 0.16	1293.1 ± 1.9

CCCO [propan-1-ol] + Cc1ccccc1Cl
x2 = 0
Conditions	mass density [kg/m3]	speed of sound [m/s]
298.15 K	799.65 ± 0.17	1206.5 ± 1.8
303.15 K	795.65 ± 0.17	1188.6 ± 1.8
308.15 K	791.65 ± 0.17	1171.8 ± 1.8

Cc1ccccc1Cl [2-chlorotoluene] + CCCCCCCO
Conditions	mass density, 298.15 K [kg/m3]	mass density, 303.15 K [kg/m3]	mass density, 308.15 K [kg/m3]	speed of sound, 298.15 K [m/s]	speed of sound, 303.15 K [m/s]	speed of sound, 308.15 K [m/s]
x1 = 0.0984	840.51 ± 0.16	836.79 ± 0.16	833.05 ± 0.16	1324.4 ± 1.9	1311 ± 1.9	1289.7 ± 1.9
x1 = 0.1921	861.75 ± 0.16	857.88 ± 0.16	853.98 ± 0.16	1320.1 ± 1.9	1306 ± 1.9	1284 ± 1.9
x1 = 0.2969	886.24 ± 0.16	882.16 ± 0.16	878.15 ± 0.16	1313.6 ± 1.9	1298.6 ± 1.9	1276.2 ± 1.9
x1 = 0.3983	910.69 ± 0.15	906.43 ± 0.15	902.26 ± 0.15	1306.5 ± 1.9	1290.7 ± 1.9	1268.5 ± 1.9
x1 = 0.4949	934.8 ± 0.15	930.38 ± 0.15	926.11 ± 0.15	1299.3 ± 1.9	1283.1 ± 1.9	1260.9 ± 1.9
x1 = 0.5961	960.97 ± 0.15	956.41 ± 0.15	952.02 ± 0.15	1293.5 ± 1.9	1276.2 ± 1.9	1254.8 ± 1.9
x1 = 0.7028	989.68 ± 0.14	985.06 ± 0.14	980.6 ± 0.14	1289.2 ± 1.9	1271.5 ± 1.9	1250.4 ± 1.9
x1 = 0.7968	1016.16 ± 0.15	1011.5 ± 0.15	1006.94 ± 0.14	1287.7 ± 1.9	1270.3 ± 1.9	1249.7 ± 1.9
x1 = 0.8993	1046.27 ± 0.16	1041.59 ± 0.15	1036.99 ± 0.15	1289.1 ± 1.9	1273.5 ± 1.9	1254.3 ± 1.9
x1 = 1	1077.38 ± 0.15	1072.8 ± 0.15	1068.21 ± 0.15	1299.8 ± 1.9	1283.6 ± 1.9	1265.6 ± 1.9

CCCCCO [pentan-1-ol] + Cc1ccccc1Cl
x2 = 0
Conditions	mass density [kg/m3]	speed of sound [m/s]
298.15 K	810.82 ± 0.24	1276.2 ± 2.1
303.15 K	807.1 ± 0.24	1259.5 ± 2
308.15 K	803.38 ± 0.24	1248.1 ± 2

CCCCCCO [hexan-1-ol] + Cc1ccccc1Cl
x2 = 0
Conditions	mass density [kg/m3]	speed of sound [m/s]
298.15 K	815.31 ± 0.4	1303.2 ± 2.4
303.15 K	811.7 ± 0.4	1286.4 ± 2.4
308.15 K	808.06 ± 0.4	1269.7 ± 2.3
